Test results reported in patent publication US9067928B2 (Genentech, Inc., priority 2008, dated 2015).

What follows are compounds tested against T1, Bcl-xL (Homo sapiens, UniProt Q07817) (assay: Alpha Screen Bcl-xL binding assay, competition with Bim26-mer). Settings: values listed in the order of Table 1; read-out: Alphascreen results (IC50).
T1 construct: made in house
Method: The measurement of competition of compounds of the invention with Bim26-mer for a Bcl-2 family protein binding site using an Alpha Screen Bcl-xL Binding Assay:
The BH3 proteins ALPHASCREEN™ assay was used to identify active small molecules Bcl-2 family protein screen. e.g., Bcl-xL, hmMcl-1 screen. To determine an accurate estimation of the IC50, the compounds were routinely tested at starting concentrations, 100 μM and/or 1 μM and serially titrated 3 fold over 11 dilutions.
The beads come in close proximity when the protein and the peptides interact. Donor beads contain a photosensitiser that converts oxygen to an excited form of O2 at an excitation of 680 nm. Energy is transformed from the singlet oxygen and reacts with chemiluminescers on the acceptor bead, resulting in light emission at 520-620 nm. […] With this information, the IC50 of each compound was calculated
GST-Bcl-xL, GST-hmMcl-1 and biotinylated GST proteins were prepared in-house and were stored as stock solutions at −80° C. The biotinylated-Bak, and biotinylated-Bim peptides were purchased from Auspep and were stored as 500 μM stock solutions in 100% DMSO at −80° C. The ALPHASCREEN™ GST (Glutathione-S-Transferase) Detection Kit was obtained from Perkin Elmer Lifesciences (Cat #6760603R). The Proxiplates, white 384 well flat-Bottom plates were purchased from Interpath Services, Melbourne (Cat #784075). The seals to cover the plates were purchased from Proscience. Melbourne (Cat#784075). DMSO was purchased from AnalaR. The 384 deep well plates and the Polypropylene 50 μL, V bottom polypropylene compound plates were purchased from Matrical.
Compounds of the invention were prepared as 10 mM stocks with 100% DMSO on the day prior to performing the assay. […] To achieve a final compound concentration of 1 μM, in a separate matrical plate, 28 μL of 100% DMSO and 2 μL of 10 mM compound was added to a well, mixed well. 2 μL of this solution was taken and added to 38 μL of 100% DMSO. 20 μL of this solution was added to the test matrical plate. Several control compounds were included in the test plates. For the control wells 15 μL 100% DMSO only was added to the appropriate wells of each plate. The compound plates were then serially diluted 2 fold using the MiniTrak. Once titrations were complete, the compound plate was immediately covered with a foil seal to prevent evaporation.
The assay and bead buffers were prepared fresh. Each titrated compound plate was assayed in duplicate. The following volumes were sufficient to run 12 Proxiplates (4 assay plates run in duplicate in each of Bclxl, hmMcl and counter assays)
Protein and Peptide Preparation; and Assay Performance • 1. The assay and bead buffers were used to prepare the acceptor and donor solutions. ALPHASCREEN™ beads are light sensitive and therefore prepared in a darkened room. 2.5 μL of beads were added per 1 mL of buffer. • 2. The volume of protein or peptide to add was calculated using the following formula:
[formula] • C1=Final Concentration of protein/peptide • C2=Stock Concentration of protein/peptide • V1=Total Volume of Acceptor/Donor Solution • V2=Volume of stock protein/Peptide to add to Acceptor/Donor solution • 3. The assay components were prepared as separate Acceptor and Donor Solutions. The Acceptor Solution contained Acceptor heads and target protein, while the Donor Solution contained Donor beads and biotinylated peptide.
• 4. After the solutions were prepared, they were left to incubate for 30 minutes at room temperature to allow the beads to bind to the protein and the peptide. • 5. 50 μL of Bcl-xL solution, 50 μL of hmMcl-1 solution and 50 µL of biotinylated-GST were added into separate deep wells on an assay plate. A control […]. Assay/Bead buffer was added separate well plates (no protein). • 6.

T1 sequence (Q07817 whole entry, species assumed): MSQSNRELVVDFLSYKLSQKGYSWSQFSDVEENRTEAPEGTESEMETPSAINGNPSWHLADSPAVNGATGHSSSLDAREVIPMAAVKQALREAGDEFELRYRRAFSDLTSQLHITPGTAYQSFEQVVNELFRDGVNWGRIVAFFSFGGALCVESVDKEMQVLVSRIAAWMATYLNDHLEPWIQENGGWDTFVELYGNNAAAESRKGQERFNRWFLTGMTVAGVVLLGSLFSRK

Structure (SMILES)	IC50
O=C(O)c1nc(-c2ccc3c(c2)N(C(=O)Nc2nc4ccccc4s2)CCO3)ccc1OCCCc1ccccc1 [Example 88, 6-(4-(benzo[d]thiazol-2-ylcarbamoyl)-3,4-dihydro-2H-benzo[b][1,4]oxazin-6-yl)-3-(3-phenylpropoxy)picolinic acid]	65 nM
Nc1cccc(OCCCc2sc(-c3ccc4c(c3)N(C(=O)Nc3nc5ccccc5s3)CCC4)nc2C(=O)O)c1 [Example 82, 5-(3-(3-aminophenoxy)propyl)-2-(1-(benzo[d]thiazol-2-ylcarbamoyl)-1,2,3,4-tetrahydroquinolin-7-yl)thiazole-4-carboxylic acid]	0.7 nM
O=C(O)c1nc(-c2ccc3c(c2)N(C(=O)Nc2nc4ccccc4s2)CCC3)sc1CCCOc1ccccc1 [Example 78, 2-(1-(benzo[d]thiazol-2-ylcarbamoyl)-1,2,3,4-tetrahydroquinolin-7-yl)-5-(3-phenoxypropyl)thiazole-4-carboxylic acid]	0.6 nM
O=C(O)c1nc(-c2ccc3c(c2)N(C(=O)Nc2nc4ccccc4s2)CCO3)sc1CCCSc1ccncc1 [Example 73, 2-(4-(benzo[d]thiazol-2-ylcarbamoyl)-3,4-dihydro-2H-benzo[b][1,4]oxazin-6-yl)-5-(3-(pyridin-4-ylthio)propyl)thiazole-4-carboxylic acid]	8 nM
COc1ccc(Oc2sc(-c3ccc4c(c3)N(C(=O)Nc3nc5ccccc5s3)CCO4)nc2C(=O)O)cc1 [Example 69, 2-(4-(benzo[d]thiazol-2-ylcarbamoyl)-3,4-dihydro-2H-benzo[b][1,4]oxazin-6-yl)-5-(4-methoxyphenoxy)thiazole-4-carboxylic acid]	680 nM
O=C(O)c1nc(-c2ccc3c(c2)N(C(=O)Nc2nc4ccccc4s2)CCC3)sc1Oc1ccc(F)cc1 [Example 65, 2-(1-(benzo[d]thiazol-2-ylcarbamoyl)-1,2,3,4-tetrahydroquinolin-7-yl)-5-(4-fluorophenoxy)thiazole-4-carboxylic acid]	230 nM
O=C(O)c1nc(-c2ccc3c(c2)N(C(=O)Nc2nc4ccccc4s2)CCO3)sc1CCCCc1ccccc1 [Example 77, 2-(4-(benzo[d]thiazol-2-ylcarbamoyl)-3,4-dihydro-2H-benzo[b][1,4]oxazin-6-yl)-5-(4-phenylbutyl)thiazole-4-carboxylic acid]	120 nM
COc1ccc(-c2sc(-c3ccc4c(c3)N(C(=O)Nc3nc5ccc(F)cc5s3)CCC4)nc2C(=O)O)cc1 [Example 72, 2-(1-(6-fluorobenzo[d]thiazol-2-ylcarbamoyl)-1,2,3,4-tetrahydroquinolin-7-yl)-5-(4-methoxyphenyl)thiazole-4-carboxylic acid]	10100 nM
NC(=O)c1nc(-c2ccc3c(c2)N(C(=O)Nc2nc4ccccc4s2)CCC3)sc1Oc1ccc(F)cc1 [Example 70, 2-(1-(benzo[d]thiazol-2-ylcarbamoyl)-1,2,3,4-tetrahydroquinolin-7-yl)-5-{4-fluorophenoxy)thiazole-4-carboxamide]	10000 nM
COc1ccc(-c2sc(-c3ccc4c(c3)N(C(=O)Nc3nc5ccccc5s3)CCO4)nc2C(=O)O)cc1 [Example 66, 2-(4-(benzo[d]thiazol-2-ylcarbamoyl)-3,4-dihydro-2H-benzo[b][1,4]oxazin-6-yl)-5-(4-methoxyphenyl)thiazole-4-carboxylic acid]	110 nM
COc1cccc(-c2sc(-c3ccc4c(c3)N(C(=O)Nc3nc5ccccc5s3)CCO4)nc2C(=O)O)c1 [Example 67, 2-(4-(benzo[d]thiazol-2-ylcarbamoyl)-3,4-dihydro-2H-benzo[b][1,4]oxazin-6-yl)-5-(3-methoxyphenyl)thiazole-4-carboxylic acid]	200 nM
O=C(O)c1nc(-c2ccc3c(c2)N(C(=O)Nc2cc4ccccn4n2)CCO3)ccc1OCCCc1ccccc1 [Example 89, 3-(3-phenylpropoxy)-6-(4-(pyrazolo[1,5-a]pyridin-2-ylcarbamoyl)-3,4-dihydro-2H-benzo[b][1,4]oxazin-6-yl)picolinic acid]	235 nM
O=C(O)c1nc(-c2ccc3c(c2)N(C(=O)Nc2nc4ccccc4s2)CCC3)ccc1OCCCOc1cccc2cccnc12 [Example 46]	10 nM
Cc1ccc(-c2sc(-c3ccc4c(c3)N(C(=O)Nc3nc5ccccc5s3)CCO4)nc2C(=O)O)cc1 [Example 64, 2-(4-(benzo[d]thiazol-2-ylcarbamoyl)-3,4-dihydro-2H-benzo[b][1,4]oxazin-6-yl)-5-p-tolylthiazole-4-carboxylic acid]	310 nM
O=C(O)c1nc(-c2ccc3c(c2)N(C(=O)Nc2nc4ccccc4s2)CCC3)sc1Oc1ccc(-n2ncc3cncnc32)cc1 [Example 93, 5-(4-(1H-pyrazolo[3,4-d]pyrimidin-1-yl)phenoxy)-2-(1-(benzo[d]thiazol-2-ylcarbamoyl)-1,2,3,4-tetrahydroquinolin-7-yl)thiazole 4-carboxylic acid]	40 nM
CC(C)(C)OC(=O)Nc1ccc(OCCCc2sc(-c3ccc4c(c3)N(C(=O)Nc3nc5ccccc5s3)CCC4)nc2C(=O)O)cc1 [Example 85, 2-(1-(benzo[d]thiazol-2-ylcarbamoyl)-1,2,3,4-tetrahydroquinolin-7-yl)-5-(3-(4-(tert-butoxycarbonylamino)phenoxy)propyl)thiazole-4-carboxylic acid]	0.5 nM
CS(=O)(=O)NC(=O)c1nc(-c2ccc3c(c2)N(C(=O)Nc2nc4ccccc4s2)CCO3)ccc1OCCCc1ccccc1 [Example 91, N-(benzo[d]thiazol-2-yl)-6-(6-(methylsulfonylcarbamoyl)-5-(3-phenylpropoxy)pyridin-2-yl)-2H-benzo[b][1,4]oxazin-4(3H)-carboxamide]	140 nM
CN(CCOc1ccccc1)c1sc(-c2ccc3c(c2)N(C(=O)Nc2nc4ccccc4s2)CCO3)nc1C(=O)O [Example 76, 2-(4-(benzo[d]thiazol-2-ylcarbamoyl)-3,4-dihydro-2H-benzo[b][1,4]oxazin-6-yl)-5-(methyl(2-phenoxyethyl)amino)thiazole-4-carboxylic acid]	390 nM
CN1CCN(C(=O)Nc2nc3ccccc3s2)c2cc(-c3cccc(C(=O)O)n3)ccc21 [Example 3]	5390 nM
Nc1cccc(OCc2cccc(-c3ccc(-c4ccc5c(c4)N(C(=O)Nc4nc6ccccc6s4)CCC5)nc3C(=O)O)c2)c1 [Example 41]	5 nM
O=C(O)c1nc(-c2ccc3c(c2)N(C(=O)Nc2nc4ccccc4s2)CCC3)ccc1OCCOc1ccccc1 [Example 19]	2 nM
CC(C)COc1ccc(-c2ccc3c(c2)N(C(=O)Nc2nc4ccccc4s2)CCC3)nc1C(=O)O [Example 4]	1440 nM
NCc1ccc(OCCCc2sc(-c3ccc4c(c3)N(C(=O)Nc3nc5ccccc5s3)CCO4)nc2C(=O)O)cc1 [Example 83, 5-(3-(4-(aminomethyl)phenoxy)propyl)-2-(4-(benzo[d]thiazol-2-ylcarbamoyl)-3,4-dihydro-2H-benzo[b][1,4]oxazin-6-yl)thiazole-4-carboxylic acid]	5 nM
